“And” between values parts separate entries of the source, which are not always exact repeats. Equal entries are not always repeated. Where two headings read alike, the source gives them in different places. Bounds are passed on as bounds.

The IC50 is the midpoint of a concentration-inhibition curve.

Data set [1] concerns the target T1, SETD2 (Homo sapiens, UniProt Q9BYW2).
T1 construct: purchased Reaction Biology
Kind of data set: Radioisotope-based methyltransferase assay (selectivity). The data set is classed as biochemical.

Data set [2] relates to β- and γ-globin genes in HUDEP-2 cells. Kind of data set: RT-qPCR of β- and γ-globin in HUDEP-2 cells. It is filed as cell-based, human. The procedure:
(§1) Total cellular RNA was prepared using the Tissue Total RNA Mini Kit (FAVORGEN), and cDNA was synthesized using ReverTra Ace Master Mix (TOYOBO). Expression of target genes was analyzed using THUNDERBIRD SYBR qPCR Mix (TOYOBO) on a CFX Connect Real Time System (Bio-Rad). The qPCR data were acquired on CFX Maestro (Bio-Rad). Primers are listed in Supplementary Table 10. GAPDH was used as a reference. Primers were purchased from INTEGRATED DNA TECHNOLOGIES or FASMAC.

In data set [3] the test system is CD34+ cells. Kind of data set: Cell viability of CD34+ cells by cell counting. The data set is classed as cell-based, human. As to conditions: for cell viability: CD34+ cells, 10 days. As for the experimental part: (§2) HUDEP-2 cells and HiDEP-1 cells were grown in Stemline II Hematopoietic Stem Cell Expansion Medium (Sigma) supplemented with 50 ng/mL recombinant stem cell factor (SCF; R&D systems), 3 IU/mL recombinant erythropoietin (EPO; Kyowa Kirin), 1 μM dexamethasone (Dex; Sigma), and 1 μg/mL doxycycline (Sigma). A total of 1 × 10^5 human CD34^+ progenitor cells derived from bone marrow or peripheral blood (Lonza) were cultured on 35-mm dishes (BD Falcon) in StemSpan SFEMII medium with 50 ng/mL SCF, 5 IU/mL EPO, and 10 ng /mL interleukin 3 (IL-3; R&D systems). The medium was changed on day 4 to SCF, EPO, and 1 μM Dex, and the cells were transferred to 60-mm dishes (BD Falcon). Seven days after the onset of differentiation, cells were counted and 1 × 10^6 cells were re-plated on 100-mm dishes (BD Falcon) with SCF, EPO, and Dex. The rat myoblast cell line H9c2, HEK293T, and PLAT-E cells were maintained in Dulbecco’s modified Eagle’s medium (Thermo Fisher Scientific) supplemented with 10% heat-inactivated fetal bovine serum (FBS) and penicillin/streptomycin. All cells were cultured at 37 °C under 5% CO2.

Data set [4] deals with T2, GLP (Homo sapiens, UniProt Q9H9B1).
T2 sequence (Q9H9B1 1-1298): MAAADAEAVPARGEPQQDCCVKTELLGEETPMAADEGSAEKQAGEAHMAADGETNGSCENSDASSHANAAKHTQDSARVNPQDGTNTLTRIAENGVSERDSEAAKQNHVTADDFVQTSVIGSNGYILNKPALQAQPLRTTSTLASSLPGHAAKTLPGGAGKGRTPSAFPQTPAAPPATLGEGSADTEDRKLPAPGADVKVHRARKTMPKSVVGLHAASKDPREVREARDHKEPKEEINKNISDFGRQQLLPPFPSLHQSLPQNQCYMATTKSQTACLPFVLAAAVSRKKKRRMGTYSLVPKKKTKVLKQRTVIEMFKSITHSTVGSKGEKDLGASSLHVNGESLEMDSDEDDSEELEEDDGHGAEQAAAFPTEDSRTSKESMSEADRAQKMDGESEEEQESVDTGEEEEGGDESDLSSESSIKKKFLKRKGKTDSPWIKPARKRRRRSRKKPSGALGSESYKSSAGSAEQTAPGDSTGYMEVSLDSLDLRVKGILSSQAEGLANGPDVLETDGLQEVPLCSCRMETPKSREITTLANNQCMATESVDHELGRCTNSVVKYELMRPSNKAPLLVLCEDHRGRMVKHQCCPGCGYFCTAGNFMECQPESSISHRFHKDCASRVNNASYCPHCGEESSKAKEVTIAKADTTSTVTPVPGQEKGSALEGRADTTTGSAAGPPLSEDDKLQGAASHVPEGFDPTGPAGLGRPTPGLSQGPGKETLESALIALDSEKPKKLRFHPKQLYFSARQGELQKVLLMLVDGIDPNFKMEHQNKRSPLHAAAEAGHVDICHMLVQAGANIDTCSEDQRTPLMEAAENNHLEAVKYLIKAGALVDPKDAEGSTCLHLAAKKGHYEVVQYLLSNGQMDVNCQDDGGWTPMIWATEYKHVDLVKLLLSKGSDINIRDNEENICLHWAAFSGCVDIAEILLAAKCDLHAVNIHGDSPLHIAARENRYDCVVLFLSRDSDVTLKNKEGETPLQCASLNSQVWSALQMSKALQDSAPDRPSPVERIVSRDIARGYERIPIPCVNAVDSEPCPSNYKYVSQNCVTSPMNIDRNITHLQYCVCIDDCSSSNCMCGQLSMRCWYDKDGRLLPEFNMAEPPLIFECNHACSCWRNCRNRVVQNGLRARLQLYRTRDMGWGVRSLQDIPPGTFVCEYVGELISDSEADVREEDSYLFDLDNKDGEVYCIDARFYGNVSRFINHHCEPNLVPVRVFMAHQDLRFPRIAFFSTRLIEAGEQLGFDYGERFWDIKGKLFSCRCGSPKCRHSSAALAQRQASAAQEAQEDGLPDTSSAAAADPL
Kind of data set: Radioisotope-based methyltransferase assay (selectivity).

For data set [5], the system named is BGLT3 RNA in CD34+ cells. Kind of data set: RT-qPCR of BGLT3 in CD34+ cells. The data set is classed as cell-based, human. Conditions: for BGLT3 expression: primary human CD34+ cells; for BGLT3 expression in CD34+ cells treated with hydroxyurea: relative to DMSO = 1, replicate values. As for the experimental part:
as §2, §1
On the technique in general: In qPCR the cycle at which signal appears reflects the starting amount.

For data set [6], the target named is T3, MLL3 (Homo sapiens, UniProt Q8NEZ4).
T3 construct: purchased Reaction Biology
Kind of data set: Radioisotope-based methyltransferase assay (selectivity). The data set is classed as biochemical.

For data set [7], the system named is BGLT3-knockdown HUDEP-2 cells. Kind of data set: RT-qPCR of BGLT3, β- and γ-globin in BGLT3-knockdown HUDEP-2 cells. As to conditions: for induction of γ-globin in BGLT3-knockdown cell lines: HUDEP-2; for BGLT3 expression / β-globin expression / γ-globin expression: shctrl DMSO = 1, 3 replicates. The data set is classed as cell-based, human. As for the experimental part:
as §1
Retroviral infection was used as previously described to establish cell lines stably expressing BGLT3 and transfected with the pCX4-pur vector, as well as knockdown cell lines transfected with the pSUPER vector[58]. Briefly, retroviruses were produced by transfecting PLAT-E cells with pCX4-pur-BGLT3 or pSUPER-ctrl, pSUPER-BGLT3, or pSUPER-G9a using 5 μg/mL polyethylenimine MAX (PEI MAX, Polysciences). Two days after transfection, the culture supernatant was collected and filtered through a 0.45-μm filter (Millipore) and used for infection with 8 μg/mL polybrene (Sigma). Forty-eight hours after infection, the infected cells were selected with 0.2 μg/mL puromycin (InvivoGen). The clonal puromycin-resistant cells were established via limiting dilution. The desired clones were confirmed by western blotting or qPCR.

Setting [8] is: single agents or combination, relative to DMSO = 1, replicate values.
Setting [9] is: Parental cells, relative to Parental DMSO = 1, replicate values.
Where [10] appears, read: shBGLT3#1 HUDEP-2 cells treated with hydroxyurea.
Setting [11] is: shBGLT3#2 HUDEP-2 cells treated with hydroxyurea.
Where [12] appears, read: shBGLT3#3 HUDEP-2 cells treated with hydroxyurea.
Where [13] appears, read: shctrl HUDEP-2 cells treated with hydroxyurea.

T1 sequence (Q9BYW2 whole entry): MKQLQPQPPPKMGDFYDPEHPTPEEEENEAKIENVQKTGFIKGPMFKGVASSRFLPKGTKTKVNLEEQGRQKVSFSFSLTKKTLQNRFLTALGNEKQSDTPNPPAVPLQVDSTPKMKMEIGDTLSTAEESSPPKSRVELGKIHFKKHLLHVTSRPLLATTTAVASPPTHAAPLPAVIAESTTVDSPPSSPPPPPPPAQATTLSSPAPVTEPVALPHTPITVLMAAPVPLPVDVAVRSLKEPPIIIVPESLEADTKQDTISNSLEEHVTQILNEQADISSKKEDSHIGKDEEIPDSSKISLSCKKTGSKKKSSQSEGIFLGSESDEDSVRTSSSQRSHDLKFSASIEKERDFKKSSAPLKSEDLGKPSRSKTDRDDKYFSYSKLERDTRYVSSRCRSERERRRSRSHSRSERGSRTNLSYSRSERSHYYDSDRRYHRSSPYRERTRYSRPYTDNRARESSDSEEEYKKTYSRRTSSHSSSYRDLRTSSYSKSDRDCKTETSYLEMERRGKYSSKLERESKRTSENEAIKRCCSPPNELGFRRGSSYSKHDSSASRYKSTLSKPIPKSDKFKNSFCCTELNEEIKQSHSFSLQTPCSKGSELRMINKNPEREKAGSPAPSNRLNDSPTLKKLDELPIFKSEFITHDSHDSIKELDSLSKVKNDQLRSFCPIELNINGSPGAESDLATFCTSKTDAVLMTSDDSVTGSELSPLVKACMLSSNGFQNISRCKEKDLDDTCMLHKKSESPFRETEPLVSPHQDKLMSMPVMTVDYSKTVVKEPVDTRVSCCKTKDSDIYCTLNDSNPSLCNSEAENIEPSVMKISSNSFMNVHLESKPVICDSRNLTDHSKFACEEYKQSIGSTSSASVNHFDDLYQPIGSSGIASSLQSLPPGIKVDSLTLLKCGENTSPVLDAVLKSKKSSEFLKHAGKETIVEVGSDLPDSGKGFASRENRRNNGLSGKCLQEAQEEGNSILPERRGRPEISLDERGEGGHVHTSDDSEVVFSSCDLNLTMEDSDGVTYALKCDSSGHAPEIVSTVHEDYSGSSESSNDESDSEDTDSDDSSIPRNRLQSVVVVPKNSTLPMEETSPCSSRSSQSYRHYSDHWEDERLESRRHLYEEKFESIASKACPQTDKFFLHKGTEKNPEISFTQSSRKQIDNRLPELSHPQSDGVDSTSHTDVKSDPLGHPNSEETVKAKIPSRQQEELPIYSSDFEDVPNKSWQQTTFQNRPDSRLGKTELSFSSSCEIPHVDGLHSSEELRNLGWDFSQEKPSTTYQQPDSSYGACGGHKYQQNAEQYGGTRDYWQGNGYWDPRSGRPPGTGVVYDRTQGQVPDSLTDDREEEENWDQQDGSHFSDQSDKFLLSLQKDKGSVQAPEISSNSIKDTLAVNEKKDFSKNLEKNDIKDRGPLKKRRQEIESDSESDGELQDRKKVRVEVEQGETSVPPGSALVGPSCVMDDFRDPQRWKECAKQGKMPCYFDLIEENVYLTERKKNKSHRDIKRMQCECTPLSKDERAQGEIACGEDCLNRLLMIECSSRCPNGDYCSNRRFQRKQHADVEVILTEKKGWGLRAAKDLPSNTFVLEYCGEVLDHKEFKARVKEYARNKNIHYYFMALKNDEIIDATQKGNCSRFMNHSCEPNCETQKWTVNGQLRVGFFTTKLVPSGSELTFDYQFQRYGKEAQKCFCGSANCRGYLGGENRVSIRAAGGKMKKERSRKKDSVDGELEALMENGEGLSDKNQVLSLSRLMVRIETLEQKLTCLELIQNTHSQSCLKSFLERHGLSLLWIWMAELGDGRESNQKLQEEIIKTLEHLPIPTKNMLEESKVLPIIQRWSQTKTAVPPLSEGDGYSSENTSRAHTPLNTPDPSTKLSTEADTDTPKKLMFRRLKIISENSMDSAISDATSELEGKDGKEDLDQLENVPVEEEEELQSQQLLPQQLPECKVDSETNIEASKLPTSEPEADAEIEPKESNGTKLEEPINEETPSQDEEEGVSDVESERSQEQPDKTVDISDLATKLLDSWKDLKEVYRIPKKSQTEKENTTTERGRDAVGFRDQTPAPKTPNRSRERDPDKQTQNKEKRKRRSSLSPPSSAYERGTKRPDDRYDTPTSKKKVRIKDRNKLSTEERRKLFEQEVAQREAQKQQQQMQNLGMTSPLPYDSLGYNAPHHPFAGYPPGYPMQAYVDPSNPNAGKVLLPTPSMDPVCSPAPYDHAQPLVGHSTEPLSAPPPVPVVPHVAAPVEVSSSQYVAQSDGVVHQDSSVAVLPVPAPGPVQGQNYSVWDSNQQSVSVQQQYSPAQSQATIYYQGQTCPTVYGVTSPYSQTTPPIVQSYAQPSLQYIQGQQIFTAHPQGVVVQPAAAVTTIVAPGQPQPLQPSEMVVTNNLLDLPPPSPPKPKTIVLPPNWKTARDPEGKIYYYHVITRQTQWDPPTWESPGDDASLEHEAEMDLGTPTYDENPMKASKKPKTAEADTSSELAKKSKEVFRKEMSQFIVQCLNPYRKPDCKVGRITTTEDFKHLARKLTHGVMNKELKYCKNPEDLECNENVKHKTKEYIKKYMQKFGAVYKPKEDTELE

`Cc1c(C(=O)NC(CCC2CC2)C(=O)Nc2ccc(C#N)cc2)[nH]c2c1C(=O)CC(C)(C)C2` (stereo not drawn) [RK-701]: the concentration for half-maximal inhibition (IC50) is > 100 µM in data set [1] (SETD2, 1 μM SAM); > 100 µM in data set [1] (SETD2, RK-701 in duplicate); 0.053 µM in data set [4]; > 100 µM in data set [6] (MLL3, 1 μM SAM); > 100 µM in data set [6] (MLL3, RK-701 in duplicate). Also, in data set [2] (HUDEP-2), the “γ-globin mRNA level” value was “upregulated”. Besides, the “β-globin expression in HUDEP-2 cells treated with RK-701 and decitabine” value in data set [2] (setting [8]) was 1.116 and 1.192 and 1.151. The “γ-globin expression in HUDEP-2 cells treated with RK-701 and decitabine” value in data set [2] (setting [8]) is 2.225 and 1.925 and 1.787. The “Cell viability in CD34+ cells” value was 4.59 10*7 cells and 4.56 10*7 cells and 4.57 10*7 cells in data set [3] (0.01 μM); 4.39 10*7 cells and 4.41 10*7 cells and 4.97 10*7 cells in data set [3] (0.03 μM); 4.54 10*7 cells and 4.45 10*7 cells and 4.75 10*7 cells in data set [3] (0.1 μM); 4.11 10*7 cells and 4.64 10*7 cells and 4.5 10*7 cells in data set [3] (0.3 μM); 4.01 10*7 cells and 4.28 10*7 cells and 4.43 10*7 cells in data set [3] (1 μM); 4.31 10*7 cells and 4.53 10*7 cells and 4.47 10*7 cells in data set [3] (3 μM). Further, the cell viability result in data set [3] was “without affecting cell viability”. In data set [5], the BGLT3 expression result is on record as “induced BGLT3 expression”. The “induction of γ-globin in BGLT3-knockdown cell lines” value in data set [7] is “almost completely abolished”.
For `NC(=O)NO` [Hydroxyurea, hydroxyurea], the “β-globin in hydroxyurea-treated HUDEP-2 cells” value in data set [2] (setting [9]) was 1.499 and 1.443 and 1.4392. Further, the “γ-globin in hydroxyurea-treated HUDEP-2 cells” value in data set [2] (setting [9]) is 3.312 and 3.051 and 3.256. Also, the “Cell viability in CD34+ cells” value in data set [3] (10 μM) is 3.83 10*7 cells and 4.25 10*7 cells and 4.44 10*7 cells; in data set [3] (50 μM) it was 1.8 10*7 cells and 1.47 10*7 cells and 1.48 10*7 cells. For the same molecule, the cell viability result in data set [3] was “severe cytotoxicity”. The “BGLT3 expression in CD34+ cells treated with hydroxyurea” value in data set [5] (DAY7, 10 μM) was 1.048 and 1.203 and 1.026; in data set [5] (DAY7, 50 μM) it was 1.743 and 1.82 and 2.054; in data set [5] (DAY9, 10 μM), 1.52 and 1.518 and 1.0769; in data set [5] (DAY9, 50 μM), 2.568 and 2.893 and 2.233. The BGLT3 expression result is “promoted BGLT3 expression” in data set [5]; 0.1509 and 0.1371 and 0.1512 in data set [7] (setting [10]); 0.4826 and 0.5314 and 0.5646 in data set [7] (setting [11]); 0.2947 and 0.3306 and 0.3028 in data set [7] (setting [12]); 2.21 and 1.619 and 1.809 in data set [7] (setting [13]). Also, the “induction of γ-globin in BGLT3-knockdown cell lines” value in data set [7] is given as “significantly suppressed by BGLT3 knockdown”. For the same molecule, the β-globin expression in data set [7] (setting [10]) was 1.466 and 1.446 and 1.721; in data set [7] (setting [11]), 1.233 and 1.155 and 1.519; in data set [7] (setting [12]), 1.946 and 1.495 and 2.515; in data set [7] (setting [13]) it was 1.158 and 0.7746 and 0.9701. The γ-globin expression in data set [7] (setting [10]) was 0.1913 and 0.1897 and 0.2071; in data set [7] (setting [11]), 0.3698 and 0.274 and 0.2235; in data set [7] (setting [12]), 0.4324 and 0.5055 and 0.5513; in data set [7] (setting [13]), 2.343 and 1.97 and 1.753.
Regarding `Nc1ncnc2c1ncn2[C@@H]1O[C@H](CSCC[C@H](N)C(=O)O)[C@@H](O)[C@H]1O` [SAH, S-(5'-Adenosyl)-L-homocysteine, reference compound], the IC50 in data set [1] (SETD2, 1 μM SAM) was found to be 5.3 µM; in data set [1] (SETD2, RK-701 in duplicate), 5.31 µM; in data set [4] (1 μM SAM) it was 3.86 µM; in data set [6] (MLL3, 1 μM SAM), 49.7 µM; in data set [6] (MLL3, RK-701 in duplicate) it was 49.7 µM.

The values are drawn from PMC9837035 (Nature Communications, 2023).
